These results are taken from US9023789B2, “Amylin analogs and pharmaceutical compositions thereof” (Novo Nordisk A/S, priority 2012, dated 2015).

The structures appear in SMILES notation. Read-outs that look alike come from different tables or passages of the source. Numbered stars: 1 amine (or outer) side, 2 acyl side, 3 side chain; on linkers, the order of the positions; unused ones are H or OH. Bridge positions count the residues as written; N and C are the ends. Side chains are listed from the residue outwards. Peptide text beside a SMILES is read from it. * marks the point of attachment. C20 diacid = O=C(O)CCCCCCCCCCCCCCCCCCC(=O)*; γGlu = O=C(O)[C@H](CCC(=O)[*:2])N[*:1]; AEEA = NCCOCCOCC(=O)O

The target in series [1] is T1, rat amylin receptor (rat calcitonin receptor + rat RAMP 3) (Rattus norvegicus, UniProt P32214+Q9JJ73).
T1 construct: expressed in transfected cells; host or cells: BHK tk'ts 13 (transient, FuGENE 6), membranes
T1 sequence (P32214 25-479 isoform P32214-2 limits assumed): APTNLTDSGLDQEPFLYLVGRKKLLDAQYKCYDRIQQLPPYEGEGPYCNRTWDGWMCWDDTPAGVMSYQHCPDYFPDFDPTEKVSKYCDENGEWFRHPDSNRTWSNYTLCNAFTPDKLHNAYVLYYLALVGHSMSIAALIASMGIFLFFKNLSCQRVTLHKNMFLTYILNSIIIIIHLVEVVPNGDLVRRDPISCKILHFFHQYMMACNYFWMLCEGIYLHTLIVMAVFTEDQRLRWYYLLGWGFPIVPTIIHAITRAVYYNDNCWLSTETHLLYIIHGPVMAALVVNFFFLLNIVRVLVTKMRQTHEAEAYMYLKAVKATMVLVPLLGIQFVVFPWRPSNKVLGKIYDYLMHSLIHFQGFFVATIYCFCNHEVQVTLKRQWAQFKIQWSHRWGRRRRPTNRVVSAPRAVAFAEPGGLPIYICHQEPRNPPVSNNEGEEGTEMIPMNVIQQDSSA
T1 sequence (Q9JJ73 23-147 partner): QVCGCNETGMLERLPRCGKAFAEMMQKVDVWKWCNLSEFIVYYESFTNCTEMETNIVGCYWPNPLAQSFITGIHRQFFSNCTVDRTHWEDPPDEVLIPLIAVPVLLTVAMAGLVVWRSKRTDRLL
Description: ASSAY (VI) binding to the rat amylin receptor. Summed up:
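This assay measured binding to the rat amylin receptor. BHK tk′ts 13 cells were transiently transfected with the rat calcitonin receptor using FuGENE® 6 (Roche), following the manufacturer's recommendations. About 48 hours after transfection, the cells were harvested and membranes were prepared from them for the binding determination.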

A short description of series [2]: ASSAY (III) ThT fibrillation assay for physical stability. Type of series: physicochemical. Summed up: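 Formulations with 1 μM ThT, pH adjusted as required, incubated at 37 °C with 960 rpm orbital shaking; fluorescence (ex 444/em 485 nm) read every 20 min. Fibrillation reported as mean ThT fluorescence ± SD of 4–8 replicates at time points; polypeptide concentration measured by reverse-phase HPLC before and after, post-centrifugation.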

Setting [3] is: Table 7, binding to rat amylin receptor, read-out: rAmylin-R bind IC50.
The mark [4] stands for this setting: Table 7, rat binding selectivity, rCTR IC50 / rAmylin-R IC50.
[5] abbreviates: Table 7a (preferred compounds), rat binding selectivity, rCTR IC50 / rAmylin-R IC50.
[6] abbreviates: ratio of rCTR bind IC50 to rAmylin-R bind IC50.

As for `CC[C@H](C)[C@H](NC(=O)[C@H](C)NC(=O)CNC(=O)[C@H](Cc1ccccc1)NC(=O)[C@H](CC(N)=O)NC(=O)[C@@H]1CCCN1C(=O)[C@H](CO)NC(=O)[C@H](CO)NC(=O)[C@H](Cc1c[nH]cn1)NC(=O)[C@H](CCCNC(=N)N)NC(=O)[C@H](CC(C)C)NC(=O)[C@H](Cc1ccccc1)NC(=O)[C@H](Cc1c[nH]cn1)NC(=O)[C@H](C)NC(=O)[C@H](CC(C)C)NC(=O)[C@H](CCCNC(=N)N)NC(=O)[C@H](CCC(N)=O)NC(=O)[C@@H](NC(=O)[C@H](C)NC(=O)[C@@H]1CSSC[C@H](NC(=O)[C@H](CCCCN)NC(=O)CC[C@H](NC(=O)CCCCCCCCCCCCCCCCCCC(=O)O)C(=O)O)C(=O)N[C@@H](CC(N)=O)C(=O)N[C@@H]([C@@H](C)O)C(=O)N[C@@H](C)C(=O)N[C@@H]([C@@H](C)O)C(=O)N1)[C@@H](C)O)C(=O)N1CCC[C@H]1C(=O)N[C@@H](CO)C(=O)N[C@@H](CO)C(=O)N[C@H](C(=O)N[C@@H](CC(N)=O)C(=O)N[C@H](C(=O)NCC(=O)N[C@@H](CO)C(=O)N[C@@H](CCC(=O)O)C(=O)N[C@H](C(=O)N[C@@H](Cc1ccc(O)cc1)C(N)=O)[C@@H](C)O)C(C)C)[C@@H](C)O` [Example 30] ({C20 diacid-γGlu}-KCNTATCATQRLAHFLRHSSPNFGAIPSSTNVGSETY-NH2; disulfide 2-7), in series [1] (setting [3]), the IC50 (commonly the point on the concentration scale where inhibition reaches its midpoint) came to 3.14 nM. Moreover, the “Ratio rCT/rAmylin binding” value in series [1] (setting [4]), in series [1] (setting [5]) and in series [1] (setting [6]) was 36.1 each time. For the same compound, the “ThT pH 4.0 lag time (h)” value in series [2] worked out at 16 h.

Regarding `CC[C@H](C)[C@H](NC(=O)[C@H](C)NC(=O)CNC(=O)[C@H](Cc1ccccc1)NC(=O)[C@H](CC(N)=O)NC(=O)[C@@H]1CCCN1C(=O)[C@H](CO)NC(=O)[C@H](CO)NC(=O)[C@H](Cc1c[nH]cn1)NC(=O)[C@H](CCCNC(=N)N)NC(=O)[C@H](CC(C)C)NC(=O)[C@H](Cc1ccccc1)NC(=O)[C@H](CC(=O)O)NC(=O)[C@H](C)NC(=O)[C@H](CC(C)C)NC(=O)[C@H](CCCNC(=N)N)NC(=O)[C@H](CCC(N)=O)NC(=O)[C@@H](NC(=O)[C@H](C)NC(=O)[C@@H]1CSSC[C@H](NC(=O)[C@@H](N)CCCCNC(=O)CC[C@H](NC(=O)CC[C@H](NC(=O)CCCCCCCCCCCCCCCCCCC(=O)O)C(=O)O)C(=O)O)C(=O)N[C@@H](CC(N)=O)C(=O)N[C@@H]([C@@H](C)O)C(=O)N[C@@H](C)C(=O)N[C@@H]([C@@H](C)O)C(=O)N1)[C@@H](C)O)C(=O)N1CCC[C@H]1C(=O)N[C@@H](CO)C(=O)N[C@@H](CO)C(=O)N[C@H](C(=O)N[C@@H](CC(N)=O)C(=O)N[C@H](C(=O)NCC(=O)N1CCC[C@H]1C(=O)N[C@@H](CCCNC(=N)N)C(=O)N[C@H](C(=O)N[C@@H](Cc1ccc(O)cc1)C(N)=O)[C@@H](C)O)C(C)C)[C@@H](C)O` [Example 130] (H-K([γGlu-γGlu-C20 diacid])CNTATCATQRLADFLRHSSPNFGAIPSSTNVGPRTY-NH2; disulfide 2-7 (inferred); N-terminus assumed), the concentration for half-maximal inhibition (IC50) in series [1] (setting [3]) was 0.93 nM. For the same compound, the “Ratio rCT/rAmylin binding” value in series [1] (setting [4]), in series [1] (setting [5]) and in series [1] (setting [6]) was 239.5 throughout. The “ThT pH 4.0 lag time (h)” value in series [2] was determined as 45 h.

Take `CC[C@H](C)[C@H](NC(=O)[C@H](C)NC(=O)CNC(=O)[C@H](Cc1ccccc1)NC(=O)[C@H](CC(N)=O)NC(=O)[C@@H]1CCCN1C(=O)[C@H](CO)NC(=O)[C@H](CO)NC(=O)[C@H](Cc1c[nH]cn1)NC(=O)[C@H](CCCNC(=N)N)NC(=O)[C@H](CC(C)C)NC(=O)[C@H](Cc1ccccc1)NC(=O)[C@H](C)NC(=O)[C@H](C)NC(=O)[C@H](CC(C)C)NC(=O)[C@H](CCCNC(=N)N)NC(=O)[C@H](CCC(N)=O)NC(=O)[C@@H](NC(=O)[C@H](C)NC(=O)[C@@H]1CSSC[C@H](NC(=O)[C@H](CCCNC(=N)N)NC(=O)CNC(=O)CC[C@H](NC(=O)CCCCCCCCCCCCCCCCCCC(=O)O)C(=O)O)C(=O)N[C@@H](CC(N)=O)C(=O)N[C@@H]([C@@H](C)O)C(=O)N[C@@H](C)C(=O)N[C@@H]([C@@H](C)O)C(=O)N1)[C@@H](C)O)C(=O)N1CCC[C@H]1C(=O)N[C@@H](CO)C(=O)N[C@@H](CO)C(=O)N[C@H](C(=O)N[C@@H](CC(N)=O)C(=O)N[C@H](C(=O)NCC(=O)N1CCC[C@H]1C(=O)N[C@@H](CC(N)=O)C(=O)N[C@H](C(=O)N[C@@H](Cc1ccc(O)cc1)C(N)=O)[C@@H](C)O)C(C)C)[C@@H](C)O` [Example 103] ({C20 diacid-γGlu}-GRCNTATCATQRLAAFLRHSSPNFGAIPSSTNVGPNTY-NH2; disulfide 3-8): in series [1], the IC50 came out at 0.436 nM. Besides, the “Ratio rCT/rAmylin binding” value in series [1] (setting [4]), in series [1] (setting [5]) and in series [1] (setting [6]) was 129.1 each time. Moreover, the “ThT pH 4.0 lag time (h)” value in series [2] is recorded as 45 h.

For `CC[C@H](C)[C@H](NC(=O)[C@H](C)NC(=O)CNC(=O)[C@H](Cc1ccccc1)NC(=O)[C@H](CC(N)=O)NC(=O)[C@@H]1CCCN1C(=O)[C@H](CO)NC(=O)[C@H](CO)NC(=O)[C@H](Cc1c[nH]cn1)NC(=O)[C@H](CCCNC(=N)N)NC(=O)[C@H](CC(C)C)NC(=O)[C@H](Cc1ccccc1)NC(=O)[C@H](CC(N)=O)NC(=O)[C@H](C)NC(=O)[C@H](CC(C)C)NC(=O)[C@H](CCCNC(=N)N)NC(=O)[C@H](CCC(N)=O)NC(=O)[C@@H](NC(=O)[C@H](C)NC(=O)[C@@H]1CSSC[C@H](NC(=O)[C@H](CCCCN)NC(=O)CC[C@H](NC(=O)CCCCCCCCCCCCCCCCCCC(=O)O)C(=O)O)C(=O)N[C@@H](CC(N)=O)C(=O)N[C@@H]([C@@H](C)O)C(=O)N[C@@H](C)C(=O)N[C@@H]([C@@H](C)O)C(=O)N1)[C@@H](C)O)C(=O)N1CCC[C@H]1C(=O)N[C@@H](CO)C(=O)N[C@@H](CO)C(=O)N[C@H](C(=O)N1CCC[C@H]1C(=O)N[C@H](C(=O)NCC(=O)N[C@@H](CO)C(=O)N[C@@H](CCC(=O)O)C(=O)N[C@H](C(=O)N[C@@H](Cc1ccc(O)cc1)C(N)=O)[C@@H](C)O)C(C)C)[C@@H](C)O` [Example 28] ({C20 diacid-γGlu}-KCNTATCATQRLANFLRHSSPNFGAIPSSTPVGSETY-NH2; disulfide 2-7 (inferred)), the IC50 in series [1] (setting [3]) was determined as 1.22 nM. Besides, the “Ratio rCT/rAmylin binding” value in series [1] (setting [4]), in series [1] (setting [5]) and in series [1] (setting [6]) was 44.9 in each case. Also, in series [2], the “ThT pH 4.0 lag time (h)” value worked out at 40 h.

Take `CC[C@H](C)[C@H](NC(=O)[C@H](C)NC(=O)CNC(=O)[C@H](Cc1ccccc1)NC(=O)[C@H](CC(N)=O)NC(=O)[C@@H]1CCCN1C(=O)[C@H](CO)NC(=O)[C@H](CO)NC(=O)[C@H](Cc1c[nH]cn1)NC(=O)[C@H](CCCNC(=N)N)NC(=O)[C@H](CC(C)C)NC(=O)[C@H](Cc1ccccc1)NC(=O)[C@H](CCCCN)NC(=O)[C@H](C)NC(=O)[C@H](CC(C)C)NC(=O)[C@H](CCCNC(=N)N)NC(=O)[C@H](CCC(N)=O)NC(=O)[C@@H](NC(=O)[C@H](C)NC(=O)[C@@H]1CSSC[C@H](NC(=O)[C@@H](N)CCCCNC(=O)COCCOCCNC(=O)CC[C@H](NC(=O)CCCCCCCCCCCCCCCCCCC(=O)O)C(=O)O)C(=O)N[C@@H](CC(N)=O)C(=O)N[C@@H]([C@@H](C)O)C(=O)N[C@@H](C)C(=O)N[C@@H]([C@@H](C)O)C(=O)N1)[C@@H](C)O)C(=O)N1CCC[C@H]1C(=O)N[C@@H](CO)C(=O)N[C@@H](CO)C(=O)N[C@H](C(=O)N1CCC[C@H]1C(=O)N[C@H](C(=O)NCC(=O)N[C@@H](CO)C(=O)N[C@@H](CC(N)=O)C(=O)N[C@H](C(=O)N[C@@H](Cc1ccc(O)cc1)C(N)=O)[C@@H](C)O)C(C)C)[C@@H](C)O` [Example 74] (H-K([AEEA-γGlu-C20 diacid])CNTATCATQRLAKFLRHSSPNFGAIPSSTPVGSNTY-NH2; disulfide 2-7; N-terminus assumed): the IC50 in series [1] is 4.89 nM. Further, the “Ratio rCT/rAmylin binding” value in series [1] (setting [4]), in series [1] (setting [5]) and in series [1] (setting [6]) was 22.3 throughout. Moreover, the “ThT pH 4.0 lag time (h)” value in series [2] came to 45 h.
